Read-outs that look alike come from different tables or passages of the source.
What was measured:
[1] = tested on: MHV, FIPV, Middle East respiratory syndrome (MERS)-CoV, VSV, IAV; conditions: cited from earlier work
in vitro = conditions: human
NCI-60 cell line panel = assay: NCI-60 one-dose cancer cell growth testing; format: cell-based, human; conditions: FIGS. 13-15
Experimental: The anti-proliferative activity of the target compounds was tested against the NCI-60 cell line panel. The screening was performed at the National Cancer Institute (NCI), Bethesda, Maryland, USA (www.dtp.nci.nih.gov), according to their standard protocol (https://dtp.cancer.gov/discovery_development/nci-60/methodology.htm).
In the anti-cancer studies were performed at the NCI, NIH in the one-dose testing of the NCI-60 project (https://dtp.cancer.gov/discovery_development/nci-60/methodology.htm). The numbers reported are growth relative to the no-drug control, and relative to the time zero number of cells. This allows detection of both growth inhibition (values between 0 and 100) and lethality (values less than 0). For example, a value of 100 means no growth inhibition. A value of 40 would mean 60% growth inhibition. A value of 0 means no net growth over the course of the experiment. A value of −40 would mean 40% lethality. A value of −100 means all cells are dead.

[2] = tested on: Neuroblastoma (SH-SY5Y) cells
Na^+, K^+-ATPase = conditions: for Inhibition of brain microsomal Na+,K+-ATPase activity, potency in comparison to Bufalin: FIGS. 2 and 3
quail cardiomyocytes = conditions: for Effect on cardiomyocytes contractility compared to digoxin: all concentrations tested, 10 minutes and 30 minutes after addition (FIGS. 5, 6)
[3] = tested on: Chikungunya virus (CHIKV); conditions: human cells; cited from earlier work
[4] = tested on: Japanese Encephalitis Virus; conditions: cited from earlier work
influenza virus = conditions: cited from earlier work
[5] = tested on: transmissible gastroenteritis coronavirus (TGEV); conditions: swine testicular (ST) cells; cited from earlier work
[6] = tested on: Human respiratory syncytial virus (RSV); conditions: human small airway epithelial cells; cited from earlier work
herpes simplex virus = conditions: cited from earlier work

Row | Compound | viability at 5 µM (in vitro) | viability at 25 µM (in vitro) | viability at 50 µM (in vitro) | viability at 100 µM (in vitro) | Most sensitive cancer cell line (NCI-60 cell line panel) | Cytotoxic potency in comparison to the other steroids [2] | Inhibition of brain microsomal Na+,K+-ATPase activity, potency in comparison to Bufalin (Na^+, K^+-ATPase) | Effect on cardiomyocytes contractility compared to digoxin (quail cardiomyocytes) | Effect on infection by CHIKV [3] | Efficiency against Japanese Encephalitis Virus [4] | also measured
1 | C[C@]12CC[C@H](O)C[C@H]1CC[C@@H]1[C@@H]2CC[C@]2(C)[C@@H](c3ccc(=O)oc3)CC[C@]12O [Bufalin, bufalin] | – | – | – | – | – | – | – | – | – | – | Effect on infection of cells with viruses [1]: inhibited infection of cells with MHV, FIPV, Middle East respiratory syndrome (MERS)-CoV, and VSV, but not IAV
2 | C[C@]12CC=CCC1CCC1C2CC[C@]2(C)[C@@H](c3ccc(=O)oc3)CC[C@]12O (stereo partly drawn) [Compound 1, bufalin 2,3-ene] | 32.2% | 13.8% | 5.62% | 1.28% | SNB-19 | lower cytotoxic potency | approximately the same potency as Bufalin | stronger effect on contractility than digoxin | – | – | –
3 | C[C@]12CCC=CC1CCC1C2CC[C@]2(C)[C@@H](c3ccc(=O)oc3)CC[C@]12O (stereo partly drawn) [Compound 2, bufalin 3,4-ene] | 53.8% | 24.7% | 11.5% | 6.13% | SNB-19 | lower cytotoxic potency | more potent inhibitor | stronger effect on contractility than digoxin | – | – | Inhibition of Na+,K+-ATPase activity at very low concentrations in comparison to Bufalin (Na^+, K^+-ATPase; very low (nanomolar) concentrations): better than Bufalin
4 | C[C@H]1O[C@@H](O[C@H]2[C@@H](O)C[C@H](O[C@H]3[C@@H](O)C[C@H](O[C@H]4CC[C@@]5(C)[C@H](CC[C@@H]6[C@@H]5C[C@@H](O)[C@]5(C)[C@@H](C7=CC(=O)OC7)CC[C@]65O)C4)O[C@@H]3C)O[C@@H]2C)C[C@H](O)[C@@H]1O [Digoxin, digoxin] | 23.4% | 1.02% | 0.26% | 2.55% | – | – | – | – | dose-dependent decrease in infection | robust efficiency against the virus | –
5 | C[C@@H]1O[C@@H](O[C@H]2C[C@@H](O)[C@]3(CO)[C@H]4[C@H](O)C[C@]5(C)[C@@H](C6=CC(=O)OC6)CC[C@]5(O)[C@@H]4CC[C@]3(O)C2)[C@H](O)[C@H](O)[C@H]1O [Ouabain, ouabain] | 6.26% | 1.92% | 0.51% | 4.09% | – | – | – | – | dose-dependent decrease in infection | robust efficiency against the virus | Effect on influenza virus replication (influenza virus): decrease influenza virus replication; Effect on TGEV-induced production of IL-6 [5]: inhibit the TGEV-induced production of IL-6 in a dose dependent manner; Effect on RSV entry [6]: inhibited; Effect on infection of cells with viruses ([1]; nM concentrations): inhibited infection of cells with MHV, FIPV, Middle East respiratory syndrome (MERS)-CoV, and VSV, but not IAV; Reduction of expression of viral immediate-early and early genes (herpes simplex virus): at least 5 fold
6 | NC[C@H](O)c1ccc(O)c(O)c1 [noradrenaline] | – | – | – | – | – | – | – | – | – | – | Effect on cardiomyocytes contractility (quail cardiomyocytes; dose-dependently, FIG. 4): increased
